Test results taken from article PMC8452302 (CPT: Pharmacometrics & Systems Pharmacology, 2021).
Where two headings read alike, the source gives them in different places.

Key:
BCRP = target: T1, BCRP (Homo sapiens, UniProt Q9UNQ0); experiment: In vitro BCRP inhibition, HEK293-BCRP membrane vesicles, rosuvastatin probe; assay type: biochemical
T1 sequence (Q9UNQ0 1-655): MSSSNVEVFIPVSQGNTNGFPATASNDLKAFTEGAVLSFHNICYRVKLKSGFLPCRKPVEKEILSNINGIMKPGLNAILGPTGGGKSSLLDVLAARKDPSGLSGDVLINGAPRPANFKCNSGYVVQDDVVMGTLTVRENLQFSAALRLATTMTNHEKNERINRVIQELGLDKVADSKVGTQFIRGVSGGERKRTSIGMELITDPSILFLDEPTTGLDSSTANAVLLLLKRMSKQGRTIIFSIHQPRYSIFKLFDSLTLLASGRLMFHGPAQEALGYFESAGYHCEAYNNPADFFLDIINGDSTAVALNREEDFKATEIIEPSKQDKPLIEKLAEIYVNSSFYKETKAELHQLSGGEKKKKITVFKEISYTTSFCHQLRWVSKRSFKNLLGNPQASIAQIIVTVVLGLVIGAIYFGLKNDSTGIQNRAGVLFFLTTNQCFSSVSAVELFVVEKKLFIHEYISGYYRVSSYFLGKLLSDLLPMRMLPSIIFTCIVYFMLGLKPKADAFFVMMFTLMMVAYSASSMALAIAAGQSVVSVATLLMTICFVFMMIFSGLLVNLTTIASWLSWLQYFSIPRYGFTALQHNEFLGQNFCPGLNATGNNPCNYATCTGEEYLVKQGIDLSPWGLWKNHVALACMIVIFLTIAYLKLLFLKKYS

OATP1B1 [1] = target: T2, OATP1B1 (Homo sapiens, UniProt Q9Y6L6); experiment: Static DDI risk assessment, OATP1B1 R-value; conditions: 1 + Iin,max,u/IC50; metabolite/combination additive; Imax,u for IV
T2 sequence (Q9Y6L6 1-691): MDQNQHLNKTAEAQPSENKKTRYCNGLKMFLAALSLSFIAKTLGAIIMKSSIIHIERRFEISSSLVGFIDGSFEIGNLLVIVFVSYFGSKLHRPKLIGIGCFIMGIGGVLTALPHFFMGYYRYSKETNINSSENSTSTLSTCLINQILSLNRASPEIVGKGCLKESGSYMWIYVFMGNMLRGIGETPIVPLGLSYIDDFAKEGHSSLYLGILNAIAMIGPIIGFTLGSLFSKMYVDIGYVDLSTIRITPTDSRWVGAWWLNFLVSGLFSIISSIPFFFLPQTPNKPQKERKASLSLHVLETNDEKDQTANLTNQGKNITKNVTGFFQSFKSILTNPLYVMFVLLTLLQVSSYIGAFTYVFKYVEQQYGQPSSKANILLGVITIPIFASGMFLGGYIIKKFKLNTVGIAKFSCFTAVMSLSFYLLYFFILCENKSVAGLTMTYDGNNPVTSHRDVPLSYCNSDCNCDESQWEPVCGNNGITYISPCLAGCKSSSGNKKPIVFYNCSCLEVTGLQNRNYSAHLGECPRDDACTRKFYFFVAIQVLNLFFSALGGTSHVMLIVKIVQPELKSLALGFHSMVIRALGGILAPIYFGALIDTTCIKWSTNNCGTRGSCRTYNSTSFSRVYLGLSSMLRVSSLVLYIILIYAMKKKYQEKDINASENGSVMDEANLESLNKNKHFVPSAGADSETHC

OATP1B3 [2] = target: T3, OATP1B3 (Homo sapiens, UniProt Q9NPD5); experiment: Static DDI risk assessment, OATP1B3 R-value; conditions: 1 + Iin,max,u/IC50; metabolite/combination additive; Imax,u for IV
T3 sequence (Q9NPD5 1-702): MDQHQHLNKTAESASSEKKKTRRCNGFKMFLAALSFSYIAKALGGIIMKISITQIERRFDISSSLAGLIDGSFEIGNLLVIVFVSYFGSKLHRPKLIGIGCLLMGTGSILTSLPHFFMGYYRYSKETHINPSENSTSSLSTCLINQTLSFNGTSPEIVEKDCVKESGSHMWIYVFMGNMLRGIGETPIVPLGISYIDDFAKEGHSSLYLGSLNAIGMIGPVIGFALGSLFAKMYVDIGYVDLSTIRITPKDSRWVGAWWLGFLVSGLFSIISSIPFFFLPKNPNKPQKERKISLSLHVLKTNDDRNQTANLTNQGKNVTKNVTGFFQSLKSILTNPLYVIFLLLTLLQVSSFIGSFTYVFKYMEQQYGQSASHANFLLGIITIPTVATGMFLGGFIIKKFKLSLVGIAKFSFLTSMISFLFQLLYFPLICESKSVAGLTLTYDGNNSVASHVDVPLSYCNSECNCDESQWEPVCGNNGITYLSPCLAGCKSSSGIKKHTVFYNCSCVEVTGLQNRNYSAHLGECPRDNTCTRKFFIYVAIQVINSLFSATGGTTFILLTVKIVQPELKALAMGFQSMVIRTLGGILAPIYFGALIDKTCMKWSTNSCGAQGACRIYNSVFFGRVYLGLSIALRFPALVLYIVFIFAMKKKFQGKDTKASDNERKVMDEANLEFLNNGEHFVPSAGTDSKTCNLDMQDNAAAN

[3] = ref Table S1, cited from earlier work; for Rosuvastatin AUC ratio: observed, rosuvastatin with vs without inhibitor; for Cmax ratio Observed: rosuvastatin with/without inhibitor, regimens as in table row
OATP1B1 [4] = target: T2, OATP1B1; experiment: In vitro OATP1B1 inhibition, transfected HEK293 cells, rosuvastatin probe; assay type: cell-based
OATP1B3 [5] = target: T3, OATP1B3; experiment: In vitro OATP1B3 inhibition, transfected HEK293 cells, rosuvastatin probe; assay type: cell-based
[6] = read-out: BCRP IC50, membrane vesicles, rosuvastatin 0.2 µM probe

SMILES	IC50 (BCRP; [6])	1B1 R-Value (OATP1B1 [1])	1B3 R-Value (OATP1B3 [2])	Rosuvastatin AUC ratio [3]	IC50 (BCRP)	IC50 (OATP1B1 [4])	IC50 (OATP1B3 [5])	Cmax ratio Observed [3]	Rosuvastatin AUC ratio ([3]; listed as darolutamide)	IC50 at 1 min (OATP1B3 [5]; human, HEK293 cells transfected with OATP1B3, pH 7.4, probe rosuvastatin 0.3 µM)
CC[C@H]1OC(=O)[C@H](C)[C@@H](O[C@H]2C[C@@](C)(OC)[C@@H](O)[C@H](C)O2)[C@H](C)[C@@H](O[C@@H]2O[C@H](C)C[C@H](N(C)C)[C@H]2O)[C@](C)(OC)C[C@@H](C)C(=O)[C@H](C)[C@@H](O)[C@]1(C)O [Clarithromcyin]	411 µM	1.99	1.35	1.58	–	–	–	–	–	–
COc1cc(Nc2ncc(F)c(Nc3ccc4c(n3)NC(=O)C(C)(C)O4)n2)cc(OC)c1OC [R406]	0.065 µM	–	–	–	–	–	–	–	–	–
CCCc1nc2c(C)cc(-c3nc4ccccc4n3C)cc2n1Cc1ccc(-c2ccccc2C(=O)O)cc1 [Telmisartan]	–	1.01	1.03	1.20	0.61 µM	3.06 µM	–	–	–	–
COc1cc(Nc2ncc(F)c(Nc3ccc4c(n3)N(COP(=O)(O)O)C(=O)C(C)(C)O4)n2)cc(OC)c1OC [Fostamatinib]	–	–	–	1.95	2 µM	0.89 µM	7.4 µM	1.90	–	–
CC(=O)c1cc(C(=O)N[C@@H](C)Cn2ccc(-c3ccc(C#N)c(Cl)c3)n2)[nH]n1 [Keto‐darolutamide]	0.56 µM	–	–	–	–	–	–	–	–	–
C[C@](O)(COc1ccc(C#N)cc1)C(=O)Nc1ccc(C#N)c(C(F)(F)F)c1 [Enobosarm]	–	1.00	–	1.18	1.1 µM	–	–	–	–	–
CC(O)c1cc(C(=O)N[C@@H](C)Cn2ccc(-c3ccc(C#N)c(Cl)c3)n2)[nH]n1 (stereo partly shown) [Darolutamide]	–	1.09	1.02	5.50	0.09 µM	–	20.2 µM	5.50	> 5	–
CC(C)c1noc(N2CCC(COc3ccc(-c4ccc(S(C)(=O)=O)cc4)nc3)CC2)n1 [GSK1292263]	–	1.03	–	1.39	3 µM	> 30 µM	–	–	–	–
COC[C@H]1C[C@@H](c2ncc(-c3ccc4c(c3)COc3cc5c(ccc6nc([C@@H]7CC[C@H](C)N7C(=O)[C@@H](NC(=O)OC)C(C)C)[nH]c65)cc3-4)[nH]2)N(C(=O)[C@H](NC(=O)OC)c2ccccc2)C1 [Velpatasvir]	–	1.00	1.02	2.59	0.09 µM	–	–	2.50	–	–
CC(C)(C)c1ccc(S(=O)(=O)Nc2ccc(Cl)cc2C(=O)c2cc[n+]([O-])cc2)cc1 [Vercirnon]	–	2.02	–	0.99	3.3 µM	2.1 µM	–	–	–	–
CC(O)C(C)n1ncn(-c2ccc(N3CCN(c4ccc(OCC5COC(Cn6cncn6)(c6ccc(Cl)cc6Cl)O5)cc4)CC3)cc2)c1=O (stereo not shown) [Hydroxy‐itraconazole]	–	–	–	–	–	1.4 µM	–	–	–	–
COc1ccnc(C[S+]([O-])c2nc3ccc(OC(F)F)cc3[nH]2)c1OC (stereo not shown) [Pantoprazole]	–	1.01	–	–	6.1 µM	> 500 µM	–	–	–	> 500 µM
COC(=O)N[C@H](C(=O)N1CCC[C@H]1c1nc(-c2ccc(-c3ccc(-c4c[nH]c([C@@H]5CCCN5C(=O)[C@@H](NC(=O)OC)C(C)C)n4)cc3)cc2)c[nH]1)C(C)C [Daclatasvir]	–	1.18	1.08	1.47	1.1 µM	–	–	–	–	–
O=c1ccc2ccc(OCCCCN3CCN(c4cccc5sccc45)CC3)cc2[nH]1 [Brexpiprazole]	–	1.00	–	1.12	100 µM	13.2 µM	–	–	–	–
CC[C@H](Nc1ncnc2[nH]cnc12)c1nc2cccc(F)c2c(=O)n1-c1ccccc1 [Idelalisib]	–	1.19	–	–	54.4 µM	3.13 µM	7 µM	–	–	–
O=C(O)C[C@H]1CC[C@H](c2ccc(-c3ccc(Nc4ccc(C(F)(F)F)nc4)cn3)cc2)CC1 [Pradigastat]	–	1.03	1.01	0.96	0.71 µM	1.48 µM	–	–	–	–
